Consider 4 molecules from patent publication US20160271263A1 (Novo Nordisk A/S, priority 2010, published 2016).

Read-outs that look alike come from different tables or passages of the source. Numbered stars: 1 amine (or outer) side, 2 acyl side, 3 side chain; on linkers, the order of the positions; unused ones are H or OH. Side chains are listed from the residue outwards. Peptide text beside a SMILES is read from it. * marks the point of attachment. C18 diacid = O=C(O)CCCCCCCCCCCCCCCCC(=O)*; γGlu = O=C(O)[C@H](CCC(=O)[*:2])N[*:1]; AEEA = NCCOCCOCC(=O)O

One may read the half-life as the time needed for the level to fall by half in the phase considered. Low readings indicate fast loss, high ones slow loss. By EC50 is commonly meant the concentration at which the effect is half-maximal.

A short description of series [1]: in vivo. The note with it: male, Sprague Dawley, rat, plasma.
Procedure: Fifteen male rats (Sprague Dawley, 400 g, Taconic Europe) were divided into three groups of five rats. The rats were dosed at t=0 with either 15 nmol/kg IV, 30 nmol/kg SC, or 100 nmol/kg, respectively. The IV dosing was performed via the tail vein while the rats were shortly under isoflurane anaesthesia. […] Plasma samples were stored on freeze until analysed by LCMS.
The target of series [2] is DPP-IV (Homo sapiens, UniProt P27487). The series can be described thus: in vitro. As for the experimental part:
10 μM of peptide was incubated with DPP-IV (2 μg/ml) in duplicate at 37° C. in a HEPES buffer to which 0.005% Tween20 were added. […] The samples were analysed by LC-MS for parent peptide. Data were plotted according to 1st kinetics and the stability was reported as half-lives.

The target of series [3] is T1, glucagon receptor (Homo sapiens, UniProt P47871). Nature of the series: cell-based.
Series [4] has as its target T1, glucagon receptor. The note with it: read-out: Assay (I) Glucagon [EC50]; Table 1; HEK-293 cells, end point data after 6 minutes.
The nature of series [5]: ThT fibrillation assay for physical stability (lag time and recovery). It is filed as physicochemical. The following applies: Table 2. The text has this: This has traditionally been measured by visual inspection of the sample. However, that kind of measurement is very subjective and depending on the observer. Therefore, the application of a small molecule indicator probe is much more advantageous. […] Enzymol.
Here, F is the ThT fluorescence at the time t. […] The two important parameters describing fibril formation are the lag-time calculated by t0−2τ and the apparent rate constant kapp 1/τ.
Few of those intermediates nucleate to form a template onto which further intermediates may assembly and the fibrillation proceeds. The lag-time corresponds to the interval in which the critical mass of nucleus is built up and the apparent rate constant is the rate with which the fibril itself is formed.
Samples were prepared freshly before each assay. […] The pH of the sample was adjusted to the desired value using appropriate amounts of concentrated NaOH and HCl. Thioflavin T was added to the samples from a stock solution in H2O to a final concentration of 1 μM.
The plate was sealed with Scotch Pad (Qiagen).
Each run was initiated by incubating the plate at the assay temperature for 10 min. The plate was measured every 20 minutes for a desired period of time. Between each measurement, the plate was shaken and heated as described.
The supernatant was filtered through a 0.22 μm filter and an aliquot was transferred to a HPLC vial. […]

T1 sequence (P47871 26-477): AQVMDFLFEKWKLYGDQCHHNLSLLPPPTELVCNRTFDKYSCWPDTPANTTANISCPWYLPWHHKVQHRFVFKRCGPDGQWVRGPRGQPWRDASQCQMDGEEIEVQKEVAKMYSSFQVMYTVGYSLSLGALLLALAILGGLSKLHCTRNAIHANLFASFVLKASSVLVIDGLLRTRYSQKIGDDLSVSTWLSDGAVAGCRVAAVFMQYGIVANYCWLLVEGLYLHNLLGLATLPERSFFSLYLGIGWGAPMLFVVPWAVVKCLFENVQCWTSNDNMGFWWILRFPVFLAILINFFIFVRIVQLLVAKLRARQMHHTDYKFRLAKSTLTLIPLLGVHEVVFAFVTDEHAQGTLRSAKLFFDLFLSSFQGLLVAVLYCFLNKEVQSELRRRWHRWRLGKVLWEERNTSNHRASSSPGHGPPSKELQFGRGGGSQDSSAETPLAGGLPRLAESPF
Sequence of DPP-IV (P27487 whole entry, species assumed): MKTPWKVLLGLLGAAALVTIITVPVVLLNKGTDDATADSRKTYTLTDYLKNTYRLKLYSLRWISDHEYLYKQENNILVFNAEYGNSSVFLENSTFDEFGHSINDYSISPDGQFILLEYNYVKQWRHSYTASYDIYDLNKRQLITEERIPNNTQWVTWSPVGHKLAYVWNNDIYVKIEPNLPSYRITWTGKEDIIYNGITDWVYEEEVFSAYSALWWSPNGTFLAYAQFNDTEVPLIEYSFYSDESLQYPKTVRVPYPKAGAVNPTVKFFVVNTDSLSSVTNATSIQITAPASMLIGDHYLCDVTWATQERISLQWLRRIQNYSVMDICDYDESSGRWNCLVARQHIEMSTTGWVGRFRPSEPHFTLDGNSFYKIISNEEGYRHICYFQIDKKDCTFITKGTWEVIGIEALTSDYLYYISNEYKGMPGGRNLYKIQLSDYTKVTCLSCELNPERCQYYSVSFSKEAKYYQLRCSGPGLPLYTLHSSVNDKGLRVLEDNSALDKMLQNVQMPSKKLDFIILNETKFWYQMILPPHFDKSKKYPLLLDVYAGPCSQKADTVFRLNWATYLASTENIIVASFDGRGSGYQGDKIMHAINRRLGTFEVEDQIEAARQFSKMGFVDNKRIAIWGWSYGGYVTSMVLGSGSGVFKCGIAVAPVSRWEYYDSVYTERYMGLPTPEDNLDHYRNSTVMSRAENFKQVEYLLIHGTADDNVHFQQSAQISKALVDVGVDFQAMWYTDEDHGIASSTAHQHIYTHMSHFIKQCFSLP

As for `CC(C)C[C@H](NC(=O)[C@H](Cc1ccc(O)cc1)NC(=O)[C@H](CCCCN)NC(=O)[C@H](CO)NC(=O)[C@H](Cc1ccc(O)cc1)NC(=O)[C@H](CC(=O)O)NC(=O)[C@H](CO)NC(=O)[C@@H](NC(=O)[C@H](Cc1ccccc1)NC(=O)[C@@H](NC(=O)CNC(=O)[C@H](CCC(N)=O)NC(=O)[C@H](CO)NC(=O)[C@@H](N)Cc1c[nH]cn1)[C@@H](C)O)[C@@H](C)O)C(=O)N[C@@H](CC(=O)O)C(=O)N[C@@H](CO)C(=O)N[C@@H](CCCCN)C(=O)N[C@@H](CCCCN)C(=O)N[C@@H](C)C(=O)N[C@@H](CCC(N)=O)C(=O)N[C@@H](CCC(=O)O)C(=O)N[C@@H](Cc1ccccc1)C(=O)N[C@H](C(=O)N[C@@H](CCCCNC(=O)COCCOCCNC(=O)COCCOCCNC(=O)CC[C@H](NC(=O)CCCCCCCCCCCCCCCCC(=O)O)C(=O)O)C(=O)N[C@@H](Cc1c[nH]c2ccccc12)C(=O)N[C@@H](CC(C)C)C(=O)N[C@@H](CC(C)C)C(=O)N[C@@H](CC(N)=O)C(=O)N[C@H](C(=O)O)[C@@H](C)O)C(C)C` [Example 3] (H-HSQGTFTSDYSKYLDSKKAQEFVK([AEEA-AEEA-γGlu-C18 diacid])WLLNT-OH), the half-life in series [1] (iv, 15 nmol/kg) was about 8.6 h; in series [1] (sc, 30 nmol/kg), about 9.4 h. For the same molecule, the half-life at 10 μM in series [2] was 4.33 h. The response in series [3] was half-maximal at 0.019 nM (EC50).
As to `CC(C)C[C@H](NC(=O)[C@H](Cc1ccc(O)cc1)NC(=O)[C@H](CCCNC(=N)N)NC(=O)[C@H](CO)NC(=O)[C@H](Cc1ccc(O)cc1)NC(=O)[C@H](CC(=O)O)NC(=O)[C@H](CO)NC(=O)[C@@H](NC(=O)[C@H](Cc1ccccc1)NC(=O)[C@@H](NC(=O)CNC(=O)[C@H](CCC(N)=O)NC(=O)[C@H](CO)NC(=O)[C@@H](N)Cc1c[nH]cn1)[C@@H](C)O)[C@@H](C)O)C(=O)N[C@@H](CC(=O)O)C(=O)N[C@@H](CO)C(=O)N[C@@H](CCCNC(=N)N)C(=O)N[C@@H](CCCNC(=N)N)C(=O)N[C@@H](C)C(=O)N[C@@H](CCC(N)=O)C(=O)N[C@@H](CC(=O)O)C(=O)N[C@@H](Cc1ccccc1)C(=O)N[C@H](C(=O)N[C@@H](CCCCNC(=O)COCCOCCNC(=O)COCCOCCNC(=O)CC[C@H](NC(=O)CCCCCCCCCCCCCCCCC(=O)O)C(=O)O)C(=O)N[C@@H](Cc1c[nH]c2ccccc12)C(=O)N[C@@H](CC(C)C)C(=O)N[C@@H](CC(C)C)C(=O)N[C@@H](CC(N)=O)C(=O)N[C@H](C(=O)O)[C@@H](C)O)C(C)C` [Example 20] (H-HSQGTFTSDYSRYLDSRRAQDFVK([AEEA-AEEA-γGlu-C18 diacid])WLLNT-OH; N-terminus and C-terminus assumed), the concentration giving a half-maximal response (EC50) in series [4] came to 0.109 nM.
On to `CC(C)C[C@H](NC(=O)[C@H](Cc1ccc(O)cc1)NC(=O)[C@H](CCCCN)NC(=O)[C@H](CO)NC(=O)[C@H](Cc1ccc(O)cc1)NC(=O)[C@H](CC(=O)O)NC(=O)[C@H](CO)NC(=O)[C@@H](NC(=O)[C@H](Cc1ccccc1)NC(=O)[C@@H](NC(=O)CNC(=O)[C@H](CCC(N)=O)NC(=O)[C@H](CO)NC(=O)[C@@H](N)Cc1c[nH]cn1)[C@@H](C)O)[C@@H](C)O)C(=O)N[C@@H](CC(=O)O)C(=O)N[C@@H](CO)C(=O)N[C@@H](CCCNC(=N)N)C(=O)N[C@@H](CCCNC(=N)N)C(=O)N[C@@H](C)C(=O)N[C@@H](CCC(N)=O)C(=O)N[C@@H](CCC(=O)O)C(=O)N[C@@H](Cc1ccccc1)C(=O)N[C@H](C(=O)N[C@@H](CCCCNC(=O)COCCOCCNC(=O)COCCOCCNC(=O)CC[C@H](NC(=O)CCCCCCCCCCCCCCCCC(=O)O)C(=O)O)C(=O)N[C@@H](Cc1c[nH]c2ccccc12)C(=O)N[C@@H](CC(C)C)C(=O)N[C@@H](CC(C)C)C(=O)N[C@@H](CC(N)=O)C(=O)N[C@H](C(=O)O)[C@@H](C)O)C(C)C` [Example 21], for which the concentration for a half-maximal effect (EC50) in series [4] turned out to be 0.021 nM.
With `CC(C)C[C@H](NC(=O)[C@H](Cc1ccc(O)cc1)NC(=O)[C@H](CCCCN)NC(=O)[C@H](CO)NC(=O)[C@H](Cc1ccc(O)cc1)NC(=O)[C@H](CC(=O)O)NC(=O)[C@H](CO)NC(=O)[C@@H](NC(=O)[C@H](Cc1ccccc1)NC(=O)[C@@H](NC(=O)CNC(=O)[C@H](CCC(N)=O)NC(=O)[C@H](CO)NC(=O)[C@@H](N)Cc1c[nH]cn1)[C@@H](C)O)[C@@H](C)O)C(=O)N[C@@H](CC(=O)O)C(=O)N[C@@H](CO)C(=O)N[C@@H](CCCNC(=N)N)C(=O)N[C@@H](CCCNC(=N)N)C(=O)N[C@@H](C)C(=O)N[C@@H](CCC(N)=O)C(=O)N[C@@H](CC(=O)O)C(=O)N[C@@H](Cc1ccccc1)C(=O)N[C@H](C(=O)N[C@@H](CCCCNC(=O)CC[C@H](NC(=O)CC[C@H](NC(=O)CC[C@H](NC(=O)CCCCCCCCCCCCCCCCC(=O)O)C(=O)O)C(=O)O)C(=O)O)C(=O)N[C@@H](Cc1c[nH]c2ccccc12)C(=O)N[C@@H](CC(C)C)C(=O)N[C@@H](CC(C)C)C(=O)N[C@@H](CO)C(=O)N[C@H](C(=O)O)[C@@H](C)O)C(C)C` [Example 71, N^ε24-[(4S)-4-carboxy-4-[[(4S)-4-carboxy-4-[[(4S)-4-carboxy-4-(17-carboxyheptadecanoylamino)butanoyl]amino]butanoyl]amino]butanoyl]-[Lys^24,Leu^27,Ser^28]-Glucagon], the “Th T assay [Lag time]” value in series [5] is 45 h. A half-maximal response in series [3] (EC50) required 0.094 nM.
